This is an account of results in PubChem BioAssay (NCI).

Values joined by “and” are separate entries in the source; they are usually repeats but may differ in a detail not shown here. Equal values may be shown once.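 Cells were grown in 96-well plates and exposed to each compound for 48 hours at five concentrations; endpoints were interpolated linearly between bracketing concentrations, or set to the highest concentration if not reached. Here, GI50 denotes the concentration required for 50% inhibition of growth. TGI marks complete inhibition of growth.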

What all share (test): NCI anticancer screen, dose series, 48 h
Experiment [1] has as its system IGROV1 ovarian.
Experiment [2] deals with UACC-257 melanoma.
Experiment [3] relates to HL-60(TB) leukemia.
In experiment [4] the test system is HT29 colon.
Experiment [5] concerns A549 NSCLC.
For experiment [6], the system named is EKVX NSCLC.
The test system of experiment [7] is K-562 leukemia.
In experiment [8] the test system is SN12C renal.
Experiment [9] deals with CCRF-CEM leukemia.
Experiment [10] deals with HOP-62 NSCLC.
Experiment [11] deals with NCI-H226 lung.
In experiment [12] the test system is SW-620 colon.
The subject of experiment [13] is UACC-62 melanoma.
In experiment [14] the test system is LOX IMVI melanoma.

Turning to `CN(C)c1ccc(/C=C2/SC(=S)NC2=O)cc1`, the TGI in experiment [1], in experiment [2], in experiment [3], in experiment [4], in [5] and in [6] was greater than 100 µM throughout. Moreover, the TGI in experiment [7], in experiment [8], in experiment [9], in [10], in [11] and in experiment [12] was greater than 100 µM throughout. Besides, the TGI in experiment [13] and in [14] was greater than 100 µM throughout.
On to `CC1=C(C)C(=O)O[C@@H]([C@](C)(O)[C@]2(O)CC[C@@]3(O)[C@@H]4C[C@H]5O[C@]56[C@@H](O)C=CC(=O)[C@]6(C)[C@H]4CC[C@]23C)C1`, for which the TGI was 9.53 µM and 6.51 µM in [1]; 3.84 µM in experiment [2]; 5.35 µM in [4]; 24 µM and 30.9 µM in experiment [5]; 3.36 µM and 1.76 µM in [6]; 2.62 µM and 15 µM in experiment [7]. The TGI is 6.59 µM in [8]; 11.4 µM and 14.6 µM in [10]; 22 µM in experiment [11]; 0.787 µM and 0.574 µM in experiment [12]; 3.41 µM and 3 µM in [13]; 2.64 µM in experiment [14]. In addition, the GI50 in [3] was 0.0665 µM and 0.053 µM; in [6] it was 2.5 µM and 0.404 µM; in experiment [7], 0.126 µM and 0.0515 µM; in experiment [10], 1.28 µM; in experiment [12], 0.266 µM and 0.0856 µM; in experiment [13], 0.288 µM and 0.0848 µM.
Turning to `CC(C)(C)NCc1cc(Nc2ccnc3cc(Cl)ccc23)cc(-c2ccc(Cl)cc2)c1O`, the TGI in [1] was determined as 7.18 µM; in [2] it was 4.11 µM; in experiment [3] it was 4.01 µM; in [4], 4.42 µM; in experiment [5], 20.6 µM; in experiment [6] it was 14.8 µM. Also, the TGI in experiment [7] amounted to 2.75 µM; in experiment [8] it was 8.9 µM; in experiment [9], 5.77 µM; in experiment [10], 6.38 µM; in [11] it was 22.3 µM; in experiment [12], 5.3 µM. The figures for the TGI in [13] and in [14] were 3.85 µM and 5.64 µM, respectively.
With `O=c1[nH]c(Nc2ccc(F)c(Cl)c2)nc2nc[nH]c12`, the TGI in experiment [1], in experiment [2], in [3], in experiment [4], in [5] and in experiment [6] was greater than 100 µM throughout. The TGI in [8], in experiment [9], in experiment [10], in [11], in [12] and in experiment [13] was greater than 100 µM throughout. This molecule also had a TGI in experiment [14] greater than 100 µM.
In the case of `CC1C(=O)OC2CC[N+]3(CC(=O)c4ccc(Br)cc4)CC=C(COC(=O)C(C)(O)C1(C)O)C23` (stereo not given), the TGI in [1], in experiment [2], in experiment [3], in experiment [4], in [5] and in experiment [6] was greater than 375 µM in each case. The TGI in experiment [7], in experiment [8], in experiment [9], in [10], in experiment [11] and in experiment [12] was greater than 375 µM throughout. Moreover, the TGI in [13] and in experiment [14] was greater than 375 µM throughout.
`COCO[C@@H]1C[C@H]2C(O)Nc3ccccc3C(=O)N2C1` (stereo not given in full): the TGI in experiment [1], in [2], in experiment [3], in experiment [4], in experiment [5] and in experiment [6] was greater than 100 µM in each case. The TGI in experiment [7], in experiment [9], in [10], in experiment [11], in [12] and in [13] was greater than 100 µM in each case. This molecule had a TGI in [14] greater than 100 µM.
Take `COC(=O)CCC(=O)CC(=O)C1=NS(=O)(=O)c2nc(S(N)(=O)=O)c(Cl)cc2N1`: the TGI in experiment [1], in experiment [2], in experiment [3], in experiment [4], in [5] and in [6] was greater than 100 µM in each case. Besides, the TGI in experiment [7], in [8], in [9], in experiment [10], in [11] and in [13] was greater than 100 µM throughout. In [14], this molecule yielded a TGI greater than 100 µM.
In the case of `O=C(O)CCCCCCC[C@@H]1S[C@H]1CCCCCCO`, the TGI in experiment [1], in experiment [2], in [3], in experiment [4], in experiment [5] and in [6] was greater than 100 µM in each case. Besides, the TGI in experiment [7], in experiment [8], in experiment [9], in experiment [10], in [11] and in [12] was greater than 100 µM each time. Also, the TGI in experiment [13] and in experiment [14] was greater than 100 µM each time.
As for `C[n+]1c2ccccc2c(CNc2ccc(S(=O)(=O)N=C(N)N)cc2)c2ccccc21`, the TGI in experiment [1] was 66.6 µM; in experiment [2], 41.3 µM; in experiment [3] it was 7.47 µM; in experiment [4] it was 49.8 µM; in [5], greater than 100 µM; in [6] it was 64.1 µM. The TGI in experiment [7] came to 52 µM; in experiment [8] it was 27.8 µM; in [9], 7.16 µM; in experiment [10], 40 µM; in experiment [11] it was 10.9 µM; in [12] it was 56.8 µM. The results for the TGI in [13] and in experiment [14] were 42.1 µM and 20.2 µM, respectively.
As to `N#C[S-].[Nd+3].c1cnc2c(c1)ccc1cccnc12.c1cnc2c(c1)ccc1cccnc12.c1cnc2c(c1)ccc1cccnc12`, the TGI was 25.3 µM in experiment [1]; 20.2 µM in [4]; 10.5 µM in [5]; 18.7 µM in experiment [6]; greater than 100 µM in experiment [7]; 14.2 µM in [8]. Further, the TGI in experiment [9] came to 3.85 µM; in [10] it was 20.6 µM; in experiment [11], 5.91 µM; in experiment [12] it was 24.7 µM; in [13], 5.44 µM; in experiment [14], 13.1 µM.
`CCSc1nc(N)c2c(-c3ccc(OC)c(OC)c3)c3c(nc2n1)CCCC3`: the TGI in experiment [1], in experiment [2], in experiment [3], in [4], in experiment [5] and in [6] was greater than 100 µM in each case. Also, the TGI in experiment [7], in [8], in experiment [9], in [10], in [12] and in experiment [13] was greater than 100 µM throughout. In [14], this molecule registered a TGI greater than 100 µM.
For `Cc1cc(NC(=S)Nc2ccccc2)c(NC(=S)Nc2ccccc2)cc1C`, the TGI is greater than 100 µM in experiment [1]; greater than 100 µM in experiment [2]; 5.23 µM in experiment [3]; greater than 100 µM in [4]; greater than 100 µM in [5]; greater than 100 µM in experiment [6]. The TGI in experiment [7] was 41.2 µM; in experiment [8] it was greater than 100 µM; in [9] it was greater than 74.9 µM; in experiment [10] it was greater than 100 µM; in [11], greater than 100 µM; in experiment [12], greater than 100 µM. In addition, the TGI in experiment [13] and in experiment [14] was greater than 100 µM each time.
With `CC(C)=CC1C(COC(=O)c2cc3c(cc2Cl)OCO3)C1(C)C` (stereo not given), the TGI is greater than 100 µM in experiment [1]; greater than 100 µM in experiment [2]; 47.6 µM in experiment [3]; greater than 100 µM in experiment [4]; greater than 100 µM in [5]; greater than 100 µM in experiment [6]. Moreover, the TGI was greater than 100 µM in experiment [7]; greater than 100 µM in experiment [8]; greater than 100 µM in experiment [9]; greater than 100 µM in [10]; 91.2 µM in experiment [11]; greater than 100 µM in [12]. Also, the results for the TGI in experiment [13] and in experiment [14] were greater than 100 µM and 50 µM, respectively.
